Legend:
MA3706 = molecular target: T1, MA3706 (Methanosarcina acetivorans, UniProt Q8TJS1); assay: isothermal titration calorimetry; type: binding; details: read-out: dissociation constant
T1 construct: gene MA_3706; removal not described), expressed in E. coli BL21(DE3) Rosetta, Ni-NTA purified

MA4265 = molecular target: T2, MA4265 (Methanosarcina acetivorans, UniProt Q8TI91); assay: waterLOGSY 1H NMR; type: binding; details: 300 μM ligand, 30 μM protein; 50 mM sodium phosphate, 100 mM NaCl, pH 7.0; 5 or 25 °C
T2 construct: gene MA_4265; removal not described), expressed in E. coli at 25°C, Ni-NTA purified
T2 sequence (Q8TI91 1-342): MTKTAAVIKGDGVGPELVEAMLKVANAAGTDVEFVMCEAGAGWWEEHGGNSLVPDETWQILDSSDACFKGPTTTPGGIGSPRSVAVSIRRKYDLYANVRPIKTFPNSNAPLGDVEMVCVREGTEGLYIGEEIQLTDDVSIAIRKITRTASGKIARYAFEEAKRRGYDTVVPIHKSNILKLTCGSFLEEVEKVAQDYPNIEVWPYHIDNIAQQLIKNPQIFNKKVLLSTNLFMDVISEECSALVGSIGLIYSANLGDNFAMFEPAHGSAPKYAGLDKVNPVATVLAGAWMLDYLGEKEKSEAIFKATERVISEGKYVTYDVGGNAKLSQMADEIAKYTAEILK

T1 sequence (Q8TJS1 whole entry): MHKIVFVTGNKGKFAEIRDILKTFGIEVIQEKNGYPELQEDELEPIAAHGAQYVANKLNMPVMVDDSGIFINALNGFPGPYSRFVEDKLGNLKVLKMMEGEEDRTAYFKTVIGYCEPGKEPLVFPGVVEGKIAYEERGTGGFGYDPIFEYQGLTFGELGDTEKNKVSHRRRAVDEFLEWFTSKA

Question: For `O=P(O)(O)OP(=O)(O)OP(=O)(O)OC[C@H]1O[C@@H](n2cnc3c(O)ncnc32)[C@H](O)[C@@H]1O` [ITP], which Kd (MA3706) is on record?
Answer: 7.8 µM

Question: For `O=C(O)C[C@H](C(=O)O)[C@@H](O)C(=O)O` [isocitrate], which “waterLOGSY 1H NMR” value (MA4265) is on record?
Answer: Only isocitrate binds to MA4265 under the conditions used.

From PMC3223730, “A nuclear magnetic resonance based approach to accurate functional annotation of putative enzymes in the methanogen Methanosarcina acetivorans” (BMC Genomics, 2011)
